Legend:
[1] = Cytotoxicity against HEK293T cells after 36 hrs by MTT assay; format: cell-based; details: Homo sapiens, HEK-293T
[2] = tested on: MCF7; test: Cytotoxicity against human MCF7 cells after 36 hrs by MTT assay; format: functional, cell-based; details: MCF7, 36 h
[3] = tested on: A549; test: Cytotoxicity against human A549 cells after 36 hrs by MTT assay; format: functional, cell-based; details: A549, 36 h
[4] = tested on: HeLa; test: Cytotoxicity against human HeLa cells after 36 hrs by MTT assay; format: functional, cell-based
[5] = tested on: MCF7; test: Induction of apoptosis in human MCF7 cells assessed as early apoptotic cells at 1 uM after 24 hrs by Annexin V-FITC/propidium iodide staining-based flow cytometry (reference value: 2.45 to 6.92%); format: functional
[6] = tested on: MCF7; test: Cell cycle arrest in human MCF7 cells assessed as accumulation at G0/G1 phase at 2 uM after 24 hrs by propidium iodide staining-based flow cytometry (reference value: 64.68 to 80.32%); format: functional
[7] = tested on: MCF7; test: Induction of apoptosis in human MCF7 cells assessed as late apoptotic cells at 1 uM after 24 hrs by Annexin V-FITC/propidium iodide staining-based flow cytometry (reference value: 5.92 to 9.33%); format: functional
[8] = tested on: MCF7; test: Induction of apoptosis in human MCF7 cells assessed as necrotic cells at 8 uM after 24 hrs by Annexin V-FITC/propidium iodide staining-based flow cytometry (reference value: 0.021 to 3.8%); format: functional
[9] = tested on: MCF7; test: Induction of apoptosis in human MCF7 cells assessed as viable cells at 8 uM after 24 hrs by Annexin V-FITC/propidium iodide staining-based flow cytometry (reference value: 80 to 91.6%); format: functional; details: MCF7, 24 h, read-out: Activity
[10] = tested on: MCF7; test: Induction of apoptosis in human MCF7 cells assessed as viable cells at 2 uM after 24 hrs by Annexin V-FITC/propidium iodide staining-based flow cytometry (reference value: 80 to 91.6%); format: functional; details: MCF7, 24 h, read-out: Activity
[11] = tested on: MCF7; test: Cell cycle arrest in human MCF7 cells assessed as accumulation at G0/G1 phase at 8 uM after 24 hrs by propidium iodide staining-based flow cytometry (reference value: 64.68 to 80.32%); format: functional
[12] = tested on: MCF7; test: Cell cycle arrest in human MCF7 cells assessed as accumulation at S phase at 4 uM after 24 hrs by propidium iodide staining-based flow cytometry (reference value: 15.95 to 25.74%); format: functional
[13] = tested on: MCF7; test: Induction of apoptosis in human MCF7 cells assessed as early apoptotic cells at 2 uM after 24 hrs by Annexin V-FITC/propidium iodide staining-based flow cytometry (reference value: 2.45 to 6.92%); format: functional
[14] = tested on: MCF7; test: Induction of apoptosis in human MCF7 cells assessed as necrotic cells at 1 uM after 24 hrs by Annexin V-FITC/propidium iodide staining-based flow cytometry (reference value: 0.021 to 3.8%); format: functional
[15] = tested on: MCF7; test: Cell cycle arrest in human MCF7 cells assessed as accumulation at G2/M phase at 4 uM after 24 hrs by propidium iodide staining-based flow cytometry (reference value: 3.73 to 10.75%); format: functional
[16] = tested on: MCF7; test: Cell cycle arrest in human MCF7 cells assessed as accumulation at G2/M phase at 8 uM after 24 hrs by propidium iodide staining-based flow cytometry (reference value: 3.73 to 10.75%); format: functional
[17] = tested on: MCF7; test: Induction of apoptosis in human MCF7 cells assessed as viable cells at 4 uM after 24 hrs by Annexin V-FITC/propidium iodide staining-based flow cytometry (reference value: 80 to 91.6%); format: functional; details: MCF7, 24 h, read-out: Activity
[18] = tested on: MCF7; test: Induction of apoptosis in human MCF7 cells assessed as viable cells at 1 uM after 24 hrs by Annexin V-FITC/propidium iodide staining-based flow cytometry (reference value: 80 to 91.6%); format: functional; details: MCF7, 24 h, read-out: Activity
[19] = tested on: MCF7; test: Cell cycle arrest in human MCF7 cells assessed as accumulation at G0/G1 phase at 4 uM after 24 hrs by propidium iodide staining-based flow cytometry (reference value: 64.68 to 80.32%); format: functional
[20] = tested on: MCF7; test: Induction of apoptosis in human MCF7 cells assessed as necrotic cells at 2 uM after 24 hrs by Annexin V-FITC/propidium iodide staining-based flow cytometry (reference value: 0.021 to 3.8%); format: functional
[21] = tested on: MCF7; test: Induction of apoptosis in human MCF7 cells assessed as late apoptotic cells at 2 uM after 24 hrs by Annexin V-FITC/propidium iodide staining-based flow cytometry (reference value: 5.92 to 9.33%); format: functional
[22] = tested on: MCF7; test: Induction of apoptosis in human MCF7 cells assessed as early apoptotic cells at 4 uM after 24 hrs by Annexin V-FITC/propidium iodide staining-based flow cytometry (reference value: 2.45 to 6.92%); format: functional
[23] = tested on: MCF7; test: Induction of apoptosis in human MCF7 cells assessed as late apoptotic cells at 8 uM after 24 hrs by Annexin V-FITC/propidium iodide staining-based flow cytometry (reference value: 5.92 to 9.33%); format: functional
[24] = tested on: MCF7; test: Induction of apoptosis in human MCF7 cells assessed as early apoptotic cells at 8 uM after 24 hrs by Annexin V-FITC/propidium iodide staining-based flow cytometry (reference value: 2.45 to 6.92%); format: functional
[25] = tested on: MCF7; test: Induction of apoptosis in human MCF7 cells assessed as necrotic cells at 4 uM after 24 hrs by Annexin V-FITC/propidium iodide staining-based flow cytometry (reference value: 0.021 to 3.8%); format: functional
[26] = tested on: MCF7; test: Cell cycle arrest in human MCF7 cells assessed as accumulation at S phase at 2 uM after 24 hrs by propidium iodide staining-based flow cytometry (reference value: 15.95 to 25.74%); format: functional
[27] = tested on: MCF7; test: Cell cycle arrest in human MCF7 cells assessed as accumulation at G2/M phase at 2 uM after 24 hrs by propidium iodide staining-based flow cytometry (reference value: 3.73 to 10.75%); format: functional
[28] = tested on: MCF7; test: Cell cycle arrest in human MCF7 cells assessed as accumulation at S phase at 8 uM after 24 hrs by propidium iodide staining-based flow cytometry (reference value: 15.95 to 25.74%); format: functional
[29] = tested on: MCF7; test: Induction of apoptosis in human MCF7 cells assessed as late apoptotic cells at 4 uM after 24 hrs by Annexin V-FITC/propidium iodide staining-based flow cytometry (reference value: 5.92 to 9.33%); format: functional

COc1cc(C2c3cc4c(cc3[C@H](OC(=O)[C@H](Cc3ccccc3)N3C(=O)c5ccccc5C3=O)[C@H]3COC(=O)[C@H]23)OCO4)cc(OC)c1OC (stereo not given in full)
IC50 [1]: 54.8 µM
IC50 [2]: 10.1 µM
IC50 [3]: 8.11 µM
IC50 [4]: 12.5 µM

COc1cc(C2c3cc4c(cc3[C@H](OC(=O)[C@@H](Cc3ccccc3)N3C(=O)C5CCCCC5C3=O)[C@H]3COC(=O)[C@H]23)OCO4)cc(OC)c1OC (stereo not given in full)
IC50 [1]: 63.4 µM
IC50 [2]: 3.73 µM
IC50 [3]: 3.89 µM
IC50 [4]: 3.89 µM

COc1cc([C@@H]2c3cc4c(cc3[C@H](O)[C@H]3COC(=O)[C@H]23)OCO4)cc(OC)c1OC [PODOFILOX]
Activity [5]: 2.33%
Activity [6]: 34.48%
Activity [7]: 4.34%
Activity [8]: 0.042%
viability at 8 µM [9]: 91.8%
viability at 2 µM [10]: 90.8%
IC50 [1]: 1.54 µM
IC50 [2]: 1.11 µM
Activity [11]: 27.1%
Activity [12]: 19.36%
Activity [13]: 2.95%
Activity [14]: 0.037%
Activity [15]: 12.77%
Activity [16]: 15.2%
viability at 4 µM [17]: 93.1%
viability at 1 µM [18]: 93.3%
Activity [19]: 67.87%
Activity [20]: 0.021%
Activity [21]: 6.26%
Activity [22]: 3.35%
IC50 [3]: 1.36 µM
Activity [23]: 4.97%
Activity [24]: 3.24%
Activity [25]: 0.032%
Activity [26]: 53.55%
Activity [27]: 11.97%
Activity [28]: 57.7%
IC50 [4]: 1.45 µM
Activity [29]: 3.57%

COc1cc(C2c3cc4c(cc3[C@H](OC(=O)[C@H](Cc3ccccc3)N3C(=O)C5CCCCC5C3=O)[C@H]3COC(=O)[C@H]23)OCO4)cc(OC)c1OC (stereo not given in full)
IC50 [1]: 42.6 µM
IC50 [2]: 8.24 µM
IC50 [3]: 4.92 µM
IC50 [4]: 8.28 µM

COc1cc(C2c3cc4c(cc3[C@H](OC(=O)[C@@H](Cc3ccccc3)N3C(=O)c5ccccc5C3=O)[C@H]3COC(=O)[C@H]23)OCO4)cc(OC)c1OC (stereo not given in full)
IC50 [1]: 50.9 µM
IC50 [2]: 25.5 µM
IC50 [3]: 7.28 µM
IC50 [4]: 18.7 µM

COc1cc(C2c3cc4c(cc3[C@H](OC(=O)[C@@H](C)N3C(=O)c5ccccc5C3=O)[C@H]3COC(=O)[C@H]23)OCO4)cc(OC)c1OC (stereo not given in full)
IC50 [1]: 59.3 µM
IC50 [2]: 8.29 µM
IC50 [3]: 8.08 µM
IC50 [4]: 11.8 µM

COc1cc(C2c3cc4c(cc3[C@H](OC(=O)[C@H](C)N3C(=O)C5C6CCC(O6)C5C3=O)[C@H]3COC(=O)[C@H]23)OCO4)cc(OC)c1OC (stereo not given in full)
IC50 [1]: 64.2 µM
IC50 [2]: 1.22 µM
IC50 [3]: 1.18 µM
IC50 [4]: 3.02 µM

COc1cc([C@@H]2c3cc4c(cc3[C@@H](O[C@@H]3O[C@@H]5CO[C@@H](C)O[C@H]5[C@H](O)[C@H]3O)[C@H]3COC(=O)[C@H]23)OCO4)cc(OC)c1O [ETOPOSIDE]
IC50 [1]: 11.5 µM
IC50 [2]: 1.74 µM
IC50 [3]: 8.01 µM
IC50 [4]: 4.39 µM

COc1cc(C2c3cc4c(cc3[C@H](OC(=O)[C@@H](Cc3ccccc3)N3C(=O)C5C6CCC(O6)C5C3=O)[C@H]3COC(=O)[C@H]23)OCO4)cc(OC)c1OC (stereo not given in full)
IC50 [1]: 67.7 µM
IC50 [2]: 2.75 µM
IC50 [3]: 4.32 µM
IC50 [4]: 3.09 µM

COc1cc(C2c3cc4c(cc3[C@H](OC(=O)C(C)N3C(=O)C5CCCCC5C3=O)[C@H]3COC(=O)[C@H]23)OCO4)cc(OC)c1OC (stereo not given in full)
IC50 [1]: 90.7 µM
IC50 [2]: 1.87 µM
IC50 [3]: 2.34 µM
IC50 [4]: 2.01 µM
